Laboratory results: publication PMC9894685, “Abscisic acid agonists suitable for optimizing plant water use” (Frontiers in Plant Science, 2023)

Legend:
[1] = tested on: RCAR11-ABI2; assay: Yeast ABA signal pathway LUC reporter, RCAR11-ABI2; assay type: cell-based, Arabidopsis thaliana
Description: (§1) The yeast cultivation and the life luciferase assay were performed as described ([Ruschhaupt et al., 2019]). Briefly, the reporter yeast expressing an ABA-dependent luciferase gene (LUC) was transformed with different combinations of ABA signaling components as indicated. Golden gate cloning ([Binder et al., 2014]) was used to construct pYEAST_LII_5‐6_CEN_URA vector with TDH3 promoter and TDH1 terminator (tTDH1), pYEAST_LII_1‐2_CEN_LEU vector with GK1 promoter and tTDH1, and pYEAST_LII_3‐4_CEN_TRP with the GAL1 promoter (pGAL1) and tTDH1 to express RCARs, PP2Cs, and OST1 (SnRK2.6), respectively ([Ruschhaupt et al., 2019]). The expression of ABF2 in yeast relies on a modified pGREG503 vector, in which pGAL1 ([Jansen et al., 2005]) was replaced by the ADH1 promoter.
(§2) Colonies of freshly transformed cells were inoculated in 0.5 mL supplemented synthetic dextrose (SD) medium and incubated at 30°C in a gyratory shaker (Thermoshake-THO500, Gerhardt, Königswinter, Germany) at 200 rpm for 16-18 h. After overnight growth, the cells were harvested and washed in SD medium followed by inoculation in SD medium containing 2% galactose for induction of SnRK2 kinases under the control of the GAL1 promoter and supplementation with ligands at indicated concentrations, to an OD600 of 0.2 in flat-bottom 96-well plates (CytoOne, Starlab, Hamburg, Germany). Yeast cultures were incubated at 30°C and 200 rpm for 16-18 h before determination of LUC activity and cell density. Light emission of yeasts was detected in a HIDEX plate luminometer (HIDEX, Turku, Finland) after injection of 100 µL freshly prepared luciferin substrate (1 mM D-luciferin, Promega) provided in 100 mM citric acid, pH 3 ([Leskinen et al., 2003]) for 5 s and was corrected for background. The LUC activity was normalized to the cell density (OD600) measured in 96-well flat plates (Sarstedt, Nümbrecht, Germany). LUC activity is given as the ratio of light emission to OD600 in counts per second.

[2] = tested on: RCAR1/PYL9-ABI2; assay: Yeast ABA signal pathway LUC reporter, RCAR1-ABI2; assay type: cell-based, Arabidopsis thaliana
Description: as §1, with “The expression of ABF2 in yeast relies on a modified pGREG503 vector, in which pGAL1 ([Jansen et al., 2005]) was replaced by the ADH1 promoter.” left out
Colonies of freshly transformed cells were inoculated in 0.5 mL supplemented synthetic dextrose (SD) medium and incubated at 30°C in a gyratory shaker (Thermoshake-THO500, Gerhardt, Königswinter, Germany) at 200 rpm for 16-18 h. […] Light emission of yeasts was detected in a HIDEX plate luminometer (HIDEX, Turku, Finland) after injection of 100 µL freshly prepared luciferin substrate (1 mM D-luciferin, Promega) provided in 100 mM citric acid, pH 3 ([Leskinen et al., 2003]) for 5 s and was corrected for background. The LUC activity was normalized to the cell density (OD600) measured in 96-well flat plates (Sarstedt, Nümbrecht, Germany). […]

[3] = tested on: T1, RCAR8/PYL5-ABI2; assay: Yeast ABA signal pathway LUC reporter, RCAR8-ABI2; assay type: cell-based, Arabidopsis thaliana
T1 construct: expressed in transfected cells; host or cells: yeast (LUC reporter strain)
Description: as §1, §2

[4] = tested on: T2, RCAR11-ABI2; assay: In vitro phosphatase assay, ABI2 with RCAR11; assay type: biochemical, Arabidopsis thaliana; conditions: 100 nM ABI2, 200 nM RCAR11
T2 construct: 6xHis (N); made in house; host or cells: Escherichia coli BL21
Description: (§3) Expression, purification, and analysis of RCAR and PP2C proteins were performed essentially as described ([Ruschhaupt et al., 2019]). Briefly, the ABA receptors RCAR1, RACR8, and RCAR11 were expressed with an aminoterminal histidine tag using the pSEVA431_LII_6xHIS::RCAR1/RCAR8/RCAR11. ABA coreceptors were expressed as histidine-tagged fusions with the maltose-binding protein using the pSEVA431_LII_6xHIS::MBP::ABI2/HAB1. All constructs were transformed and expressed in Escherichia coli strain BL21 and purified to homogeneity according to supplier’s instruction (GE Healthcare, Chicago, USA). The receptor assay was performed with 100 nM PP2C and a two-fold molar excess of RCAR. Values are means ± SD of three replicates. […] The maximum inhibition was set to 100% in the figures. The phosphatase activity was measured using 4-methylumbelliferyl-phosphate as a substrate ([Meinhard and Grill, 2001]). The increase in fluorescence was recorded over 25 min with excitation and emission wavelengths at 360 and 460 nm, respectively, using a Synergy 2 plate reader (Bio-Tec, Winooski, USA).

[5] = molecular target: T3, RCAR1-ABI2 (Arabidopsis thaliana, UniProt O04719+Q84MC7); assay: In vitro phosphatase assay, ABI2 with RCAR1; assay type: biochemical; conditions: for Statistical significance of RCAR1-mediated inhibition of ABI2 phosphatase activity vs ABA: Fig. 3B
T3 construct: 6xHis (N); made in house; host or cells: Escherichia coli BL21
T3 sequence (Q84MC7 1-187): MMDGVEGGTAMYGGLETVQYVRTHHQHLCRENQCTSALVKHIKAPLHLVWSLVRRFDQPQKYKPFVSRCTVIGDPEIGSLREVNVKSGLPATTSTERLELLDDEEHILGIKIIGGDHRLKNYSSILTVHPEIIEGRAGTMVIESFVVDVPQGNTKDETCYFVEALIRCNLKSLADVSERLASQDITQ
T3 sequence (O04719 1-423): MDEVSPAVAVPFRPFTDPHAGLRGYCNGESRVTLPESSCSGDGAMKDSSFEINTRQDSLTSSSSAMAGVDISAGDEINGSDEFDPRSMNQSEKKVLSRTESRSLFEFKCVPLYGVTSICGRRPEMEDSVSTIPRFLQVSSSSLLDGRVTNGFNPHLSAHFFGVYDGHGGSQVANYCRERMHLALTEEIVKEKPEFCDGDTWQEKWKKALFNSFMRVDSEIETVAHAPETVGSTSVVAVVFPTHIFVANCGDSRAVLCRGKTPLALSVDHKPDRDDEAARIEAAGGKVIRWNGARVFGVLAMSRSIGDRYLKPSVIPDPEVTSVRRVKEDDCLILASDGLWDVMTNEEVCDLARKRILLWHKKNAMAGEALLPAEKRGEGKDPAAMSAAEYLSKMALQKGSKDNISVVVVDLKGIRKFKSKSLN
Description: as §3

[6] = molecular target: RCAR8-ABI2; assay: In vitro phosphatase assay, ABI2 with RCAR8; assay type: biochemical, Arabidopsis thaliana; conditions: 100 nM ABI2, 200 nM RCAR8
Description: as §3

[7] = tested on: Arabidopsis plants; assay: Foliar administration and thermal imaging of leaf temperature (transpiration), Arabidopsis; assay type: in vivo, Arabidopsis thaliana
Description: (§4) Thermal imaging was carried out as described ([Yang et al., 2016]). An assessment of the efficacy of ABA and CCPs was conducted by using 35-day-old Arabidopsis and 30-day-old wheat plants. Stock solutions (10 mM) of CCPs and ABA dissolved in dimethyl sulfoxide (DMSO) were diluted to the respective ligand concentrations (10, 30, 100 µM) in water containing 0.01% (v/v) Tween 20. Aqueous Tween 20 solutions supplemented with 0.1%, 0.3%, and 1% DMSO served for mock treatments. The solutions were sprayed onto the leaf surface until the run-off of droplets. One day after application (unless otherwise indicated), thermal imaging was conducted using the InfraTec instrument (IR-TCM 384, InfraTec, Dresden, Germany). The leaf temperature of Arabidopsis was determined as the average temperature of all leaves. The leaf temperature of wheat was determined as described ([Yang et al., 2019]).

[8] = tested on: wheat plants; assay: Foliar administration and thermal imaging of leaf temperature, wheat; assay type: in vivo, Triticum aestivum; conditions: 100 μM, 24 h after administration
Description: as §4

[9] = tested on: ABI1 with RCAR11/PYR1; set-up: method as in Frackenpohl et al., 2018; conditions: ref Frackenpohl et al., 2018; cited from earlier work

SMILES: CC(=C/C(=O)O)/C=C/C(O)(C(C)C)C1(C#N)CC1 (stereo not shown) [CCP1, (2Z,4E)-6-(1-cyanocyclopropyl)-3-methyl-6-hydroxy-7-methylocta-2,4-dienoic acid]
- LUC reporter induction compared to mock-treated cells ([1]; 30 µM exogenous ligand, 16 h exposure): approximately eightfold
- Activation of the ABA response compared to ABA ([1]; dose-dependent, 0.1-30 µM): comparable activity to ABA
- Higher exogenous concentration required for reporter expression comparable to 1 µM ABA [2]: approximately 30 x
- Reporter induction relative to ABA ([3]; 1 µM exogenous ligand): approximately half the ABA induction
- Higher level required for induction value comparable to 1 µM ABA ([3]; yeast, RCAR8-ABI2): about 10 x
- Inhibition of ABI2 compared to ABA [4]: comparable to ABA
- Statistical significance of RCAR1-mediated inhibition of ABI2 phosphatase activity vs ABA ([5]; 0.003 µM): ns (Otherwise, the difference is regarded as insignificant indicated as “ns”)
- Statistical significance of RCAR1-mediated inhibition of ABI2 phosphatase activity vs ABA ([5]; 0.01 µM): s (P < 0.05 (one-way ANOVA) is considered as a significant difference and expressed as “s”)
- Statistical significance of RCAR1-mediated inhibition of ABI2 phosphatase activity vs ABA ([5]; 0.03 µM): s (P < 0.05 (one-way ANOVA) is considered as a significant difference and expressed as “s”)
- Statistical significance of RCAR1-mediated inhibition of ABI2 phosphatase activity vs ABA ([5]; 0.1 µM): s (P < 0.05 (one-way ANOVA) is considered as a significant difference and expressed as “s”)
- IC50 relative to ABA (fold higher) ([5]; 100 nM ABI2 and 200 nM RCAR1): approximately 100 fold
- Statistical significance of RCAR1-mediated inhibition of ABI2 phosphatase activity vs ABA ([5]; 0.3 µM): s (P < 0.05 (one-way ANOVA) is considered as a significant difference and expressed as “s”)
- Statistical significance of RCAR1-mediated inhibition of ABI2 phosphatase activity vs ABA ([5]; 1 µM): s (P < 0.05 (one-way ANOVA) is considered as a significant difference and expressed as “s”)
- Statistical significance of RCAR1-mediated inhibition of ABI2 phosphatase activity vs ABA ([5]; 3 µM): s (P < 0.05 (one-way ANOVA) is considered as a significant difference and expressed as “s”)
- Statistical significance of RCAR1-mediated inhibition of ABI2 phosphatase activity vs ABA ([5]; 10 µM): s (P < 0.05 (one-way ANOVA) is considered as a significant difference and expressed as “s”)
- Statistical significance of RCAR1-mediated inhibition of ABI2 phosphatase activity vs ABA ([5]; 30 µM): s (P < 0.05 (one-way ANOVA) is considered as a significant difference and expressed as “s”)
- Statistical significance of RCAR1-mediated inhibition of ABI2 phosphatase activity vs ABA ([5]; 100 µM): s (P < 0.05 (one-way ANOVA) is considered as a significant difference and expressed as “s”)
- IC50 relative to ABA (fold higher) [6]: around 10 fold
- Potency in reducing transpiration compared to ABA ([7]; 10 µM): more potent than 100 µM ABA
- Higher leaf temperature ([7]; 30 µM, nineteen days after administration): 1.5 °C
- Duration of persistent response ([7]; 10 and 30 µM ligand treatment): 10 days
- Potency relative to ABA ([7]; 10 and 30 µM ligand vs 100 µM ABA): more than tenfold
- Duration of effect relative to ABA ([7]; 10 and 30 µM ligand vs ABA): approximately three times
- Efficiency in minimizing transpiration compared to ABA ([7]; foliar application): by an order of magnitude more efficient than ABA
- ABA concentration achieving a temperature increase similar to 10 µM of the CCP ([7]; one day after application): about 100 µM
- Activity and persistence of minimized transpiration compared to ABA ([7]; single application 100 µM, recorded for 19 days): more active and persistent than ABA
- Leaf temperature increase, activity compared to ABA [8]: higher activity than ABA
- Activity in in vitro inhibition of ABI1 phosphatase activity [9]: ABA-like activity
